Results from patent US20020072512A1, “Method of preventing and treating HIV-mediated central nervous system damage” (priority 2000, published 2002).
One block for each compound: values may come before it.

What was measured:
[1] = system: astroglial cells exposed to supernatant of HIV-infected macrophages; experiment: Ultrastructural studies (electron microscopy) of astroglial cells; type: cell-based, human; details: co-incubation, AZT 50 μM; for pro-apoptotic effect of supernatant of HIV-infected M/M on astroglial cell ultrastructure: M40401 10-100 μM, L-NAME 100 μM
Protocol: (§1) The astrocytic cell line Lipari was derived from a patient who presented a large right front-temporal mass (astrocytoma), and grown as previously described (Mollace, V., Colasanti, M., Rodinò, P., Lauro, G. M. & Nisticò, G. (1994b). Biochem. Biophys. Res. Commun. 203, 87-92.). Cells were expanded and cultured by seeding them in 25cm plastic flasks at a density of 0.7×10^6 cells/flask in complete medium, and incubated at 37° C. in humidified air containing 5% CO2.
(§2) A monocytotropic strain of HIV-1, named HIV-1Ba-L was used in all experiments. M/M cultures were exposed to HIV and virus expansion was performed. After 2 hours, virus was removed by washing cultures with warm medium and then cultures of M/M infected by HIV were carried out for further 13-15 days.
(§3) The supernatant of HIV-infected M/M was collected 13 days after virus infection and then incubated for 3 hours with cultured astrocytes. The supernatant of Mock-infected M/M was used as control treatment. […] HIV-p24 antigen production in supernatants of M/M was assesed using a commercially available ELISA Kit (HIV-p24 gag Abbott Lab, Pomezia, Italy).
Cells for electron microscopy were fixed in 2.5% glutaraldehyde in PBS pH7.4 at 4° C. and then washed for 2 hours in PBS and post fixed in osmium tetroxide 1,33% for 2 hours at 4° C. After several washes in PBS, the cells were dehydrated in graded alcohol, transferred into toluene, and embedded in Epon 812 resin. The resin was allowed to polymerize in a dry oven at 60° C. for 24 hours. Thin sections were cut with a glass knife Reichert microtome, stained with Touloidine Blue and examined on Axioscope microscope. Ultra-thin sections were cut on a Reichert microtome using a diamond knife, stained with uranyl-acetate-lead-hydroxide and evaluated and photographed on a Philips electron microscope CM 10 (Philips).

[2] = system: astroglial cells incubated with supernatants of HIV-infected macrophages; experiment: Malondialdehyde (MDA) in astroglial cells incubated with supernatants of HIV-infected macrophages; type: cell-based, human; details: M40401 100 μM, L-NAME 100 μM, AZT 50 μM, MDA in nmol g-1
Protocol: as §1, §2, §3

[3] = system: Lipari astroglial cell line incubated with supernatant of HIV-1 infected macrophages; experiment: FACS analysis of apoptotic cell death of astrocytes exposed to supernatant of HIV-infected macrophages; type: cell-based, human; details: M40401 10-100 μM, L-NAME 100 μM, AZT 50 μM
Protocol: as §1, §2
The supernatant of HIV-infected M/M was collected 13 days after virus infection and then incubated for 3 hours with cultured astrocytes. The supernatant of Mock-infected M/M was used as control treatment. […]
The astrocytic cells either treated or untreated with supernatants of HIV-infected macrophages were gently detached from plastic 8 days after exposure. […] Propidium iodide-stained cells were analysed with a FACScan Flow Cytometer; fluorescence was measured between 565 and 605nm. The data were acquired and analysed by the Lysis II program.

[4] = Catalytic catalase activity assay using oxygen electrodes; type: biochemical; details: total oxygen evolved
[5] = same conditions (pH=7.4 and 21° C.); cited from earlier work
[6] = Reaction with hydrogen peroxide (spectrophotometric or cyclic voltammetric monitoring); type: biochemical; details: spectrophotometric or electrochemical (cyclic voltammetric) techniques

Structure (SMILES): Cc1cn([C@H]2C[C@H](N=[N+]=[N-])[C@@H](CO)O2)c(=O)[nH]c1=O [AZT]
pro-apoptotic effect of HIV-infected macrophages on astroglial cell ultrastructure ([1]; FIG. 5, M40401 100 μM): failed to inhibit
pro-apoptotic effect of supernatant of HIV-infected M/M on astroglial cell ultrastructure [1]: failed to inhibit
MDA overproduction (lipid peroxydation) [2]: failed to antagonize

Structure (SMILES): COC(=O)[C@@H](N)CCCNC(=N)N[N+](=O)[O-] [L-NAME]
pro-apoptotic effect of supernatant of HIV-infected M/M on astroglial cell ultrastructure [1]: failed to inhibit
MDA overproduction (lipid peroxydation) [2]: failed to antagonize
apoptotic cell death of astroglial cells as evaluated by FACS analysis [3]: failed to modify

catalytic catalase activity with H2O2 [4]: no catalytic activity is observed
Structure (SMILES): [Cl-].[Cl-].[Mn+2].c1cc2nc(c1)CN[C@@H]1CCCC[C@H]1NCCN[C@@H]1CCCC[C@H]1NC2 [M40403]
reaction with hydrogen peroxide [5]: do not react
stoichiometric reaction with H2O2 [6]: no stoichiometric reaction is observed
